# Laboratory results: PubChem BioAssay AID1259407 (Chemical Carcinogenesis Research Information System (CCRIS), 2018)
# The source made the active and inactive calls. No rule for the calls is given here.
# Test system: CCRIS mutagenicity, Ames/micronucleus/aberration tests
# Experiment: CCRIS mutagenicity studies
# [1] = Test System: AMES SALMONELLA TYPHIMURIUM, Strain/Indicator: TA98, Metabolic Activation: NONE, Method: STANDARD PLATE
# [2] = Test System: AMES SALMONELLA TYPHIMURIUM, Strain/Indicator: TA98, Metabolic Activation: RAT, LIVER, S-9, AROCLOR 1254, Method: STANDARD PLATE
# [3] = Test System: AMES SALMONELLA TYPHIMURIUM, Strain/Indicator: TA100, Metabolic Activation: NONE, Method: STANDARD PLATE
# [4] = Test System: AMES SALMONELLA TYPHIMURIUM, Strain/Indicator: TA100, Metabolic Activation: RAT, LIVER, S-9, AROCLOR 1254, Method: STANDARD PLATE
compound,measurement,setting,value
O=C1NC(=O)C(c2ccccc2)(c2ccccc2)N1,mutagenic call,"End Point: IN VITRO CHROMOSOMAL ABERRATIONS, Test System: CHINESE HAMSTER OVARY CELLS, Metabolic Activation: NONE",inactive; negative
same,mutagenic call,"End Point: IN VITRO CHROMOSOMAL ABERRATIONS, Test System: CHINESE HAMSTER OVARY CELLS, Metabolic Activation: RAT, LIVER, S-9, AROCLOR 1254",inactive; negative
same,mutagenic call,"End Point: IN VIVO MICRONUCLEUS, Test System: BONE MARROW POLYCHROMATIC ERYTHROCYTES, Species: MOUSE, Strain/Sex: CD-1/MALE, FEMALE, Route: IP",inactive; negative
same,mutagenic call,"End Point: IN VIVO MICRONUCLEUS, Test System: FETAL LIVER POLYCHROMATIC ERYTHROCYTES (MALES AND FEMALES), Species: MOUSE, Strain/Sex: FEMALE (PREGNANT), Route: IP",inactive; negative
same,mutagenic call,"Test System: AMES SALMONELLA TYPHIMURIUM, Strain/Indicator: TA97, Metabolic Activation: NONE, Method: STANDARD PLATE",inactive; negative
same,mutagenic call,"Test System: AMES SALMONELLA TYPHIMURIUM, Strain/Indicator: TA97, Metabolic Activation: RAT, LIVER, S-9, 3-METHYLCHOLANTHRENE, Method: PREINCUBATION (10, 20 OR 30 MIN)",inactive; negative
same,mutagenic call,"Test System: AMES SALMONELLA TYPHIMURIUM, Strain/Indicator: TA97, Metabolic Activation: RAT, LIVER, S-9, AROCLOR 1254 (50 OR 100 UG), Method: STANDARD PLATE",inactive; negative
same,mutagenic call,"Test System: AMES SALMONELLA TYPHIMURIUM, Strain/Indicator: TA97, Metabolic Activation: RAT, LIVER, S-9, AROCLOR 1254, Method: PREINCUBATION (10, 20 OR 30 MIN)",inactive; negative
same,mutagenic call,"Test System: AMES SALMONELLA TYPHIMURIUM, Strain/Indicator: TA97, Metabolic Activation: RAT, LIVER, S-9, AROCLOR 1254, Method: STANDARD PLATE",inactive; negative
same,mutagenic call,"Test System: AMES SALMONELLA TYPHIMURIUM, Strain/Indicator: TA97, Metabolic Activation: RAT, LIVER, S-9, PHENOBARBITONE, Method: PREINCUBATION (10, 20 OR 30 MIN)",inactive; negative
same,mutagenic call,"Test System: AMES SALMONELLA TYPHIMURIUM, Strain/Indicator: TA98, Metabolic Activation: HAMSTER, LIVER, S-9, AROCLOR 1254 (10%), Method: PREINCUBATION",inactive; negative
same,mutagenic call,"Test System: AMES SALMONELLA TYPHIMURIUM, Strain/Indicator: TA98, Metabolic Activation: NONE, Method: PREINCUBATION",inactive; negative
same,mutagenic call,[1],inactive; negative
same,mutagenic call,"Test System: AMES SALMONELLA TYPHIMURIUM, Strain/Indicator: TA98, Metabolic Activation: RAT, LIVER, S-9, 3-METHYLCHOLANTHRENE, Method: STANDARD PLATE",inactive; negative
same,mutagenic call,"Test System: AMES SALMONELLA TYPHIMURIUM, Strain/Indicator: TA98, Metabolic Activation: RAT, LIVER, S-9, AROCLOR 1254 (10%), Method: PREINCUBATION",inactive; negative
same,mutagenic call,"Test System: AMES SALMONELLA TYPHIMURIUM, Strain/Indicator: TA98, Metabolic Activation: RAT, LIVER, S-9, AROCLOR 1254 (50 OR 100 UG), Method: STANDARD PLATE",inactive; negative
same,mutagenic call,"Test System: AMES SALMONELLA TYPHIMURIUM, Strain/Indicator: TA98, Metabolic Activation: RAT, LIVER, S-9, AROCLOR 1254, Method: PREINCUBATION (10, 20 OR 30 MIN)",inactive; negative
same,mutagenic call,[2],inactive; negative
same,mutagenic call,"Test System: AMES SALMONELLA TYPHIMURIUM, Strain/Indicator: TA98, Metabolic Activation: RAT, LIVER, S-9, PHENOBARBITONE, Method: STANDARD PLATE",inactive; negative
same,mutagenic call,"Test System: AMES SALMONELLA TYPHIMURIUM, Strain/Indicator: TA100, Metabolic Activation: HAMSTER, LIVER, S-9, AROCLOR 1254 (10%), Method: PREINCUBATION",inactive; negative
same,mutagenic call,"Test System: AMES SALMONELLA TYPHIMURIUM, Strain/Indicator: TA100, Metabolic Activation: NONE, Method: PREINCUBATION",inactive; negative
same,mutagenic call,[3],inactive; negative
same,mutagenic call,"Test System: AMES SALMONELLA TYPHIMURIUM, Strain/Indicator: TA100, Metabolic Activation: RAT, LIVER, S-9, AROCLOR 1254 (10%), Method: PREINCUBATION",inactive; negative
same,mutagenic call,"Test System: AMES SALMONELLA TYPHIMURIUM, Strain/Indicator: TA100, Metabolic Activation: RAT, LIVER, S-9, AROCLOR 1254 (50 OR 100 UG), Method: STANDARD PLATE",inactive; negative
same,mutagenic call,[4],inactive; negative
same,mutagenic call,"Test System: AMES SALMONELLA TYPHIMURIUM, Strain/Indicator: TA1530, Metabolic Activation: NONE, Method: STANDARD PLATE",inactive; negative
same,mutagenic call,"Test System: AMES SALMONELLA TYPHIMURIUM, Strain/Indicator: TA1530, Metabolic Activation: RAT, LIVER, S-9, AROCLOR 1254 (50 OR 100 UG), Method: STANDARD PLATE",inactive; negative
same,mutagenic call,"Test System: AMES SALMONELLA TYPHIMURIUM, Strain/Indicator: TA1535, Metabolic Activation: HAMSTER, LIVER, S-9, AROCLOR 1254 (10%), Method: PREINCUBATION",inactive; negative
same,mutagenic call,"Test System: AMES SALMONELLA TYPHIMURIUM, Strain/Indicator: TA1535, Metabolic Activation: NONE, Method: PREINCUBATION",inactive; negative
same,mutagenic call,"Test System: AMES SALMONELLA TYPHIMURIUM, Strain/Indicator: TA1535, Metabolic Activation: RAT, LIVER, S-9, AROCLOR 1254 (10%), Method: PREINCUBATION",inactive; negative
same,mutagenic call,"Test System: AMES SALMONELLA TYPHIMURIUM, Strain/Indicator: TA1537, Metabolic Activation: HAMSTER, LIVER, S-9, AROCLOR 1254 (10%), Method: PREINCUBATION",inactive; negative
same,mutagenic call,"Test System: AMES SALMONELLA TYPHIMURIUM, Strain/Indicator: TA1537, Metabolic Activation: NONE, Method: PREINCUBATION",inactive; negative
same,mutagenic call,"Test System: AMES SALMONELLA TYPHIMURIUM, Strain/Indicator: TA1537, Metabolic Activation: NONE, Method: STANDARD PLATE",inactive; negative
same,mutagenic call,"Test System: AMES SALMONELLA TYPHIMURIUM, Strain/Indicator: TA1537, Metabolic Activation: RAT, LIVER, S-9, AROCLOR 1254 (10%), Method: PREINCUBATION",inactive; negative
same,mutagenic call,"Test System: AMES SALMONELLA TYPHIMURIUM, Strain/Indicator: TA1537, Metabolic Activation: RAT, LIVER, S-9, AROCLOR 1254 (50 OR 100 UG), Method: STANDARD PLATE",inactive; negative
same,mutagenic call,"Test System: AMES SALMONELLA TYPHIMURIUM, Strain/Indicator: TA1538, Metabolic Activation: NONE, Method: STANDARD PLATE",inactive; negative
same,mutagenic call,"Test System: AMES SALMONELLA TYPHIMURIUM, Strain/Indicator: TA1538, Metabolic Activation: RAT, LIVER, S-9, 3-METHYLCHOLANTHRENE, Method: STANDARD PLATE",inactive; negative
same,mutagenic call,"Test System: AMES SALMONELLA TYPHIMURIUM, Strain/Indicator: TA1538, Metabolic Activation: RAT, LIVER, S-9, AROCLOR 1254 (50 OR 100 UG), Method: STANDARD PLATE",inactive; negative
same,mutagenic call,"Test System: AMES SALMONELLA TYPHIMURIUM, Strain/Indicator: TA1538, Metabolic Activation: RAT, LIVER, S-9, AROCLOR 1254, Method: PREINCUBATION (10, 20 OR 30 MIN)",inactive; negative
same,mutagenic call,"Test System: AMES SALMONELLA TYPHIMURIUM, Strain/Indicator: TA1538, Metabolic Activation: RAT, LIVER, S-9, AROCLOR 1254, Method: STANDARD PLATE",inactive; negative
same,mutagenic call,"Test System: AMES SALMONELLA TYPHIMURIUM, Strain/Indicator: TA1538, Metabolic Activation: RAT, LIVER, S-9, PHENOBARBITONE, Method: STANDARD PLATE",inactive; negative
same,mutagenic call,"Test System: CHINESE HAMSTER OVARY, Strain/Indicator: CHO-K1-BH4 (HGPRT)/6-THIOGUANINE, Metabolic Activation: NONE, Method: SUSPENSION/PLATE",inactive; negative
same,mutagenic call,"Test System: CHINESE HAMSTER OVARY, Strain/Indicator: CHO-K1-BH4 (HGPRT)/6-THIOGUANINE, Metabolic Activation: S-9, Method: SUSPENSION/PLATE",inactive; negative
same,mutagenic call,"Test System: MOUSE LYMPHOMA, Strain/Indicator: L5178Y (TK+/TK-), Metabolic Activation: NONE, Method: SUSPENSION/PLATE",inactive; negative
same,mutagenic call,"Test System: MOUSE LYMPHOMA, Strain/Indicator: L5178Y (TK+/TK-), Metabolic Activation: RAT, LIVER, S-9, AROCLOR 1254, Method: SUSPENSION/PLATE",inactive; negative
same,mutagenic call,"Test System: MOUSE LYMPHOMA, Strain/Indicator: L5178Y (TK+/TK-), Metabolic Activation: S-9, Method: SUSPENSION/PLATE",inactive; negative
Cc1ccc2c([N+](=O)[O-])cc[n+]([O-])c2c1,mutagenic call,"Test System: UDS RODENT PRIMARY CELLS, Strain/Indicator: THY INCORP (NON-S-PHASE), Metabolic Activation: NONE, Method: AUTORADIOGRAPHY",active; positive
COc1c(Cl)ccc2oc3cc4c(c(OC)c3c(=O)c12)[C@@H]1C=CO[C@@H]1O4,mutagenic call,[1],inactive; negative
same,mutagenic call,[2],active; positive
same,mutagenic call,[3],active; positive
same,mutagenic call,[4],active; positive
CCCCOc1ccc(N=O)cc1,mutagenic call,[3],active; positive
